# Patent US12679848B2, “Plasma kallikrein inhibitors” (Merck Sharp & Dohme LLC, priority 2020, dated 2026)
# Experiments:
# human factor XIa = human factor XIa (Homo sapiens, UniProt P03951); assay: Factor XIa Assay; assay type: biochemical; conditions: human factor XIa 0.04 nM, substrate GPR-AFC, 30 min pre-incubation, 25° C., pH 7.4; read-out: FXIa IC50
# Human plasma kallikrein = molecular target: T1, Human plasma kallikrein (Homo sapiens, UniProt P03952); assay: Plasma Kallikrein Assay; assay type: biochemical; conditions: purified Human plasma kallikrein 0.5 nM, substrate Acetyl-K-P-R-AFC, HEPES pH 7.4; read-out: PKal IC50
# T1 construct: yields a heavy chain (371 amino acids) and a light chain (248 amino acids); The active site of plasma kallikrein is contained in the light chain; purchased Enzyme Research Laboratories
# Outline: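 Purified human plasma kallikrein at 0.5 nM final with substrate Acetyl-K-P-R-AFC at […], in 50 mM HEPES pH 7.4, 150 mM NaCl, 5 mM CaCl2, 0.1% PEG 8000, at rt or 37° C after enzyme-inhibitor equilibration. IC50 from four-parameter logistic fit of fluorescence rate; Ki via Cheng-Prusoff.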
# Chain of human factor XIa (P03951 388-625 limits assumed): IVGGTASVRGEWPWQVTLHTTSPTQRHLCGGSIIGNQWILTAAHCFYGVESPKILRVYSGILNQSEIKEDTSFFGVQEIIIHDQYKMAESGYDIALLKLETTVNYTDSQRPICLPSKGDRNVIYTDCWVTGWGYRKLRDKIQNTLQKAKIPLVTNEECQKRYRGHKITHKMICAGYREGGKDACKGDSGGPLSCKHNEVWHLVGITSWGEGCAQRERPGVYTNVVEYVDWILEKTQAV
# Chain of human factor XIa (P03951 19-387 partner limits assumed): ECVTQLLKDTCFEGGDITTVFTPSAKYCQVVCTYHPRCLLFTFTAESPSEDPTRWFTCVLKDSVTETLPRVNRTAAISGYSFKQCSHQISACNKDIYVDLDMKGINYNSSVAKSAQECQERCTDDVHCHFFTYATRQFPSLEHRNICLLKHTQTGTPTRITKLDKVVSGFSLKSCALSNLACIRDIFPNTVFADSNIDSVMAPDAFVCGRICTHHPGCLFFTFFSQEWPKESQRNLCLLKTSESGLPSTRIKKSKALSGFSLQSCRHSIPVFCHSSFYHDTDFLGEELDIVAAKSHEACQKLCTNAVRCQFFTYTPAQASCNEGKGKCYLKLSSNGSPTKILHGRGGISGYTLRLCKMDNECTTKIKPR
# T1 sequence (P03952 391-638 limits assumed): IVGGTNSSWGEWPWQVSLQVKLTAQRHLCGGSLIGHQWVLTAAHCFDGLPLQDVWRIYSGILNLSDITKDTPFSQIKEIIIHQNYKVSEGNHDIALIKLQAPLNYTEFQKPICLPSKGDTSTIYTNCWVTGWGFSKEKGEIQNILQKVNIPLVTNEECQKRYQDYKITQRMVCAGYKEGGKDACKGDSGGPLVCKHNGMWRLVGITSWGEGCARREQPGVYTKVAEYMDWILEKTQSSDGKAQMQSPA
# T1 sequence (P03952 20-390 partner limits assumed): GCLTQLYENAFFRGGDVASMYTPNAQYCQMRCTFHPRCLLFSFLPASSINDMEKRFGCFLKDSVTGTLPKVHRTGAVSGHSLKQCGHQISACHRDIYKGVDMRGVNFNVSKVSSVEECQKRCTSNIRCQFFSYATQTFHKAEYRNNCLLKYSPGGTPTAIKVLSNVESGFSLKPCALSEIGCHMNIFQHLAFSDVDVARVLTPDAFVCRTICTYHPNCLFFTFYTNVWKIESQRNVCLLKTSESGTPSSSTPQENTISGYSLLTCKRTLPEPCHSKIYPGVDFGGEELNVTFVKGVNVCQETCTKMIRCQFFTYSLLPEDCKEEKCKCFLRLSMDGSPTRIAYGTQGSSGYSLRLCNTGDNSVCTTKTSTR
Compound,IC50 (human factor XIa),IC50 (Human plasma kallikrein)
"CC1(C)CN(C(=O)c2cnn(-c3ccccc3)c2N)C[C@]2(C1)OC(=O)Nc1ccc(Cl)c(F)c12 [Example 69, (R)-1'-(5-Amino-1-phenyl-1H-pyrazole-4-carbonyl)-6-chloro-5-fluoro-5',5'-dimethylspiro[benzo[d][1,3]oxazine-4,3'-piperidin]-2(1H)-one]",4590 nM,41.7 nM
"CCOC(=O)c1ccc(C)c(-n2ncc(C(=O)N3CCC[C@@]4(C3)OC(=O)Nc3ccc(Cl)c(F)c34)c2N)c1 [Example 70, Ethyl (R)-3-(5-amino-4-(6-chloro-5-fluoro-2-oxo-1,2-dihydrospiro[benzo[d][1,3]oxazine-4,3'-piperidine]-1'-carbonyl)-1H-pyrazol-1-y1)-4-methylbenzoate]",1140 nM,13.4 nM
"CC(=O)Nc1cccc(-n2ncc(C(=O)N3CCC[C@@]4(C3)OC(=O)Nc3ccc(Cl)c(F)c34)c2N)c1 [Example 71, (R)-N-(3-(5-Amino-4-(6-chloro-5-fluoro-2-oxo-1,2-dihydrospiro[benzo[d][1,3]oxazine-4,3'-piperidine]-1'-carbonyl)-1H-pyrazol-1-yl)phenyl)acetamide]",4050 nM,36.6 nM
"Nc1c(C(=O)N2CCC[C@@]3(C2)OC(=O)Nc2ccc(Cl)c(F)c23)cnn1-c1ccncc1Cl [Example 73, (R)-1'-(5-Amino-1-(3-chloropyridin-4-y1)-1H-pyrazole-4-carbonyl)-6-chloro-5-fluorospiro[benzo[d][1,3]oxazine-4,3'-piperidin]-2(1H)-one]",316 nM,22.5 nM
"Nc1c(C(=O)N2CCC[C@@]3(C2)OC(=O)Nc2ccc(Cl)c(F)c23)cnn1-c1ccc(C(=O)O)cc1 [Example 74, (R)-4-(5-Amino-4-(6-chloro-5-fluoro-2-oxo-1,2-dihydrospiro[benzo[d][1,3]oxazine-4,3'-piperidine]-l'-carbonyl)-1H-pyrazol-1-yl)benzoic acid]",378 nM,8.4 nM
"Nc1c(C(=O)N2CCC[C@@]3(C2)OC(=O)Nc2ccc(Cl)c(F)c23)cnn1-c1ccc(N2CCOC2=O)cc1 [Example 75, (R)-1'-(5-Amino-1-(4-(2-oxooxazolidin-3-yl)phenyl)-1H-pyrazole-4-carbonyl)-6-chloro-5-fluorospiro[benzo[d][1,3]oxazine-4,3'-piperidin]-2(1H)-one]",4720 nM,50.7 nM
"Nc1c(C(=O)N2CCC[C@@]3(C2)OC(=O)Nc2ccc(Cl)c(F)c23)cnn1-c1cc(F)ccc1F [Example 76, (R)-1'-(5-Amino-1-(2,5-difluorophenyl)-1H-pyrazole-4-carbonyl)-6-chloro-5-fluorospiro[benzo[d][1,3]oxazine-4,3'-piperidin]-2(1H)-one]",1060 nM,29.5 nM
"Nc1c(C(=O)N2CCC[C@@]3(C2)OC(=O)Nc2ccc(Cl)c(F)c23)cnn1-c1ccccc1C(F)(F)F [Example 77, (R)-1'-(5-Amino-1-(2-(trifluoromethyl)phenyl)-1H-pyrazole-4-carbonyl)-6-chloro-5-fluorospiro[benzo[d][1,3]oxazine-4,3'-piperidin]-2(1H)-one]",399 nM,17.3 nM
"Nc1c(C(=O)N2CCC[C@@]3(C2)OC(=O)Nc2ccc(Cl)c(F)c23)cnn1-c1cc(F)ccc1Cl [Example 78, (R)-1'-(5-Amino-1-(2-chloro-5-fluorophenyl)-1H-pyrazole-4-carbonyl)-6-chloro-5-fluorospiro[benzo[d][1,3]oxazine-4,3'-piperidin]-2(1H)-one]",813 nM,35.9 nM
"COc1ccccc1-n1ncc(C(=O)N2CCC[C@@]3(C2)OC(=O)Nc2ccc(Cl)c(F)c23)c1N [Example 79, (R)-1'-(5-Amino-1-(2-methoxyphenyl)-1H-pyrazole-4-carbonyl)-6-chloro-5-fluorospiro[benzo[d][1,3]oxazine-4,3'-piperidin]-2(1H)-one]",377 nM,5.8 nM
"CCc1ccccc1-n1ncc(C(=O)N2CCC[C@@]3(C2)OC(=O)Nc2ccc(Cl)c(F)c23)c1N [Example 80, (R)-1'-(5-Amino-1-(2-ethylphenyl)-1H-pyrazole-4-carbonyl)-6-chloro-5-fluorospiro[benzo[d][1,3]oxazine-4,3'-piperidin]-2(1H)-one]",325 nM,11.6 nM
"CC(C)c1ccccc1-n1ncc(C(=O)N2CCC[C@@]3(C2)OC(=O)Nc2ccc(Cl)c(F)c23)c1N [Example 81, (R)-1'-(5-Amino-1-(2-isopropylphenyl)-1H-pyrazole-4-carbonyl)-6-chloro-5-fluorospiro[benzo[d][1,3]oxazine-4,3'-piperidin]-2(1H)-one]",353 nM,5.5 nM
"Nc1c(C(=O)N2CCC[C@@]3(C2)OC(=O)Nc2ccc(Cl)c(F)c23)cnn1-c1ccccc1Cl [Example 82, (R)-1'-(5-Amino-1-(2-chlorophenyl)-1H-pyrazole-4-carbonyl)-6-chloro-5-fluorospiro[benzo[d][1,3]oxazine-4,3'-piperidin]-2(1H)-one]",739 nM,28.4 nM
"Nc1c(C(=O)N2CCC[C@@]3(C2)OC(=O)Nc2ccc(Cl)c(F)c23)cnn1-c1ccccc1Br [Example 83, (R)-1'-(5-Amino-1-(2-bromophenyl)-1H-pyrazole-4-carbonyl)-6-chloro-5-fluorospiro[benzo[d][1,3]oxazine-4,3'-piperidin]-2(1H)-one]",862 nM,35.5 nM
"Nc1c(C(=O)N2CCC[C@@]3(C2)OC(=O)Nc2ccc(Cl)c(F)c23)cnn1-c1ccccc1F [Example 84, (R)-1'-(5-Amino-1-(2-fluorophenyl)-1H-pyrazole-4-carbonyl)-6-chloro-5-fluorospiro[benzo[d][1,3]oxazine-4,3'-piperidin]-2(1H)-one]",923 nM,27.3 nM
"Cc1cccc(-n2ncc(C(=O)N3CCC[C@@]4(C3)OC(=O)Nc3ccc(Cl)c(F)c34)c2N)c1C [Example 85, (R)-1'-(5-Amino-1-(2,3-dimethylphenyl)-1H-pyrazole-4-carbonyl)-6-chloro-5-fluorospiro[benzo[d][1,3]oxazine-4,3'-piperidin]-2(1H)-one]",1950 nM,9.2 nM
"Cc1ccc(-n2ncc(C(=O)N3CCC[C@@]4(C3)OC(=O)Nc3ccc(Cl)c(F)c34)c2N)c(C)c1 [Example 86, (R)-1'-(5-Amino-1-(2,4-dimethylphenyl)-1H-pyrazole-4-carbonyl)-6-chloro-5-fluorospiro[benzo[d][1,3]oxazine-4,3'-piperidin]-2(1H)-one]",645 nM,46 nM
"Cc1ccc(C)c(-n2ncc(C(=O)N3CCC[C@@]4(C3)OC(=O)Nc3ccc(Cl)c(F)c34)c2N)c1 [Example 87, (R)-1'-(5-Amino-1-(2,5-dimethylphenyl)-1H-pyrazole-4-carbonyl)-6-chloro-5-fluorospiro[benzo[d][1,3]oxazine-4,3'-piperidin]-2(1H)-one]",1170 nM,26.4 nM
"Cc1ccc(F)cc1-n1ncc(C(=O)N2CCC[C@@]3(C2)OC(=O)Nc2ccc(Cl)c(F)c23)c1N [Example 88, (R)-1'-(5-Amino-1-(5-fluoro-2-methylpheny1)-1H-pyrazole-4-carbonyl)-6-chloro-5-fluorospiro[benzo[d][1,3]oxazine-4,3'-piperidin]-2(1H)-one]",1690 nM,47 nM
"Nc1c(C(=O)N2CCC[C@@]3(C2)OC(=O)Nc2ccc(Cl)c(F)c23)cnn1-c1ccccc1OC1CC1 [Example 89, (R)-1'-(5-Amino-1-(2-cyclopropoxyphenyl)-1H-pyrazole-4-carbonyl)-6-chloro-5-fluorospiro[benzo[d][1,3]oxazine-4,3'-piperidin]-2(1H)-one]",162 nM,1.6 nM
"Nc1c(C(=O)N2CCC[C@@]3(C2)OC(=O)Nc2ccc(Cl)c(F)c23)cnn1-c1ccccc1OC(F)F [Example 90, (R)-1'-(5-Amino-1-(2-(difluoromethoxy)phenyl)-1H-pyrazole-4-carbonyl)-6-chloro-5-fluorospiro[benzo[d][1,3]oxazine-4,3'-piperidin]-2(1H)-one]",215 nM,6.6 nM
"Nc1c(C(=O)N2CCC[C@@]3(C2)OC(=O)Nc2ccc(Cl)c(F)c23)cnn1-c1cccc2c1OC(F)(F)O2 [Example 91, (R)-1'-(5-Amino-1-(2,2-difluorobenzo[d][1,3]dioxol-4-y1)-1H-pyrazole-4-carbonyl)-6-chloro-5-fluorospiro[benzo[d][1,3]oxazine-4,3'-piperidin]-2(1H)-one]",525 nM,5.8 nM
"COC(=O)c1ccc(-n2ncc(C(=O)N3CCC[C@@]4(C3)OC(=O)Nc3ccc(Cl)c(F)c34)c2N)c(OC)c1 [Example 92, Methyl (R)-4-(5-amino-4-(6-chloro-5-fluoro-2-oxo-1,2-dihydrospiro[benzo[d][1,3]oxazine-4,3'-piperidine]-l'-carbonyl)-1H-pyrazol-1-yl)-3-methoxybenzoate]",1710 nM,13.2 nM
"Nc1c(C(=O)N2CCC[C@@]3(C2)OC(=O)Nc2ccc(Cl)c(F)c23)cnn1-c1c(F)cccc1F [Example 93, (R)-1'-(5-Amino-1-(2,6-difluorophenyl)-1H-pyrazole-4-carbonyl)-6-chloro-5-fluorospiro[benzo[d][1,3]oxazine-4,3'-piperidin]-2(1H)-one]",418 nM,10.4 nM
"COc1ccc(Cl)cc1-n1ncc(C(=O)N2CCC[C@@]3(C2)OC(=O)Nc2ccc(Cl)c(F)c23)c1N [Example 94, (R)-1'-(5-Amino-1-(5-chloro-2-methoxyphenyl)-1H-pyrazole-4-carbonyl)-6-chloro-5-fluorospiro[benzo[d][1,3]oxazine-4,3'-piperidin]-2(1H)-one]",1290 nM,11.8 nM
